Marks after values point to notes of the source that are not given here.

One test deals with circulating lymphocytes in whole blood. As to the kind of experiment: number of circulating lymphocytes in whole blood of rats. The format is in vivo, normotensive male Wistar rats. Particulars: 6 h after oral administration of 10 mg/kg to normotensive male Wistar rats, compared to group treated with vehicle only. The method, then:
Normotensive male Wistar rats are housed in climate-controlled conditions with a 12-hour light/dark cycle, and have free access to normal rat chow and drinking water. Blood (0.5 mL) is collected by retro-orbital sampling before drug administration, and 3 and 6 h thereafter. Blood cell count is measured in whole blood using a Beckman-Coulter Synchron CX5 Pro cytometer. Statistical analysis of lymphocyte counts are performed by analysis of variance (ANOVA) using Statistica (StatSoft) and the Student-Newman-Keuls procedure for multiple comparisons. Thus, compounds of the invention decrease the number of circulating lymphocytes in whole blood when compared to pre-drug values.
As to `Cc1ccccc1N1C(=O)/C(=C/c2ccc(OCC(O)CO)c(Cl)c2)S/C1=N\C(C)C` (racemic) [Example 24, rac-5-[3-chloro-4-(2,3-dihydroxy-propoxy)-benz[Z]ylidene]-2-([Z]-isopropylimino)-3-o-tolyl-thiazolidin-4-one], the Lymphocyte counts is listed as −54%.

As for `Cc1cccc(N2C(=O)/C(=C/c3ccc(OCC(O)CO)c(Cl)c3)S/C2=N\C(C)C)c1C` (racemic) [Example 46, rac-5-[3-chloro-4-(2,3-dihydroxy-propoxy)-benz[Z]ylidene]-3-(2,3-dimethyl-phenyl)-2-([Z]-isopropylimino)-thiazolidin-4-one], the Lymphocyte counts is −37%.

For the molecule `CCC/N=C1\S/C(=C\c2ccc(OCC(O)CO)c(Cl)c2)C(=O)N1c1ccccc1` (racemic) [Example 77, rac-5-[3-chloro-4-(2,3-dihydroxy-propoxy)-benz[Z]ylidene]-3-phenyl-2-([Z]-propylimino)-thiazolidin-4-one], the Lymphocyte counts is −55%.

For `CCC/N=C1\S/C(=C\c2ccc(OCC(O)CO)c(Cl)c2)C(=O)N1c1ccccc1C` (racemic) [Example 84, rac-5-[3-chloro-4-(2,3-dihydroxy-propoxy)-benz[Z]ylidene]-2-([Z]-propylimino)-3-o-tolyl-thiazolidin-4-one], the Lymphocyte counts was −68%.

In the case of `CCC/N=C1\S/C(=C\c2ccc(OCC(O)CO)c(Cl)c2)C(=O)N1c1cccc(C)c1C` (racemic) [Example 95, rac-5-[3-chloro-4-(2,3-dihydroxy-propoxy)-benz[Z]ylidene]-3-(2,3-dimethyl-phenyl)-2-([Z]-propylimino)-thiazolidin-4-one], the Lymphocyte counts is listed as −53%.

Take `CC(C)/N=C1\S/C(=C\c2ccc(OCCO)cc2)C(=O)N1c1ccccc1` [Example 4, 5-[4-(2-Hydroxy-ethoxy)-benz-(Z)-ylidene]-2-[(Z)-isopropylimino]-3-phenyl-thiazolidin-4-one]: the Lymphocyte counts is −32%.

`CC(C)/N=C1\S/C(=C\c2ccc(OCCO)c(Cl)c2)C(=O)N1c1ccccc1` [Example 7, 5-[3-Chloro-4-(2-hydroxy-ethoxy)-benz-(Z)-ylidene]-2-[(Z)-isopropylimino]-3-phenyl-thiazolidin-4-one]: the Lymphocyte counts is −67%.

With `Cc1cccc(N2C(=O)/C(=C/c3ccc(OCCO)c(Cl)c3)S/C2=N\C(C)C)c1C` [Example 42, 5-[3-chloro-4-(2-hydroxy-ethoxy)-benz[Z]ylidene]-3-(2,3-dimethyl-phenyl)-2-([Z]-isopropylimino)-thiazolidin-4-one], the Lymphocyte counts is −23%.

For the molecule `CCC/N=C1\S/C(=C\c2ccc(OCCO)c(Cl)c2)C(=O)N1c1ccccc1` [Example 75, 5-[3-chloro-4-(2-hydroxy-ethoxy)-benz[Z]ylidene]-3-phenyl-2-([Z]-propylimino)-thiazolidin-4-one], the Lymphocyte counts is −47%.

Regarding `CCC/N=C1\S/C(=C\c2ccc(OCCO)c(C)c2)C(=O)N1c1ccccc1` [Example 76, 5-[4-(2-hydroxy-ethoxy)-3-methyl-benz[Z]ylidene]-3-phenyl-2-([Z]-propylimino)-thiazolidin-4-one], the Lymphocyte counts is −58%.

Consider `CCC/N=C1\S/C(=C\c2ccc(OC[C@H](O)CO)c(Cl)c2)C(=O)N1c1ccccc1C` [Example 85, 5-[3-chloro-4-((2R)-2,3-dihydroxy-propoxy)-benz-(Z)-ylidene]-2-[(Z)-propylimino]-3-o-tolyl-thiazolidin-4-one], for which the Lymphocyte counts is reported as −63%.

In the case of `CCC/N=C1\S/C(=C\c2ccc(OCCO)c(Cl)c2)C(=O)N1c1cccc(C)c1C` [Example 91, 5-[3-chloro-4-(2-hydroxy-ethoxy)-benz[Z]ylidene]-3-(2,3-dimethyl-phenyl)-2-([Z]-propylimino)-thiazolidin-4-one], the Lymphocyte counts is on record as −35%.

In the case of `CN(C)N=C1SC(=Cc2ccc(OCCO)cc2)C(=O)N1c1ccccc1` [Example 100, 2-(dimethyl-hydrazono)-5-[4-(2-hydroxy-ethoxy)-benz[Z]ylidene]-3-phenyl-thiazolidin-4-one], the Lymphocyte counts is reported as −53%.

As for `CC/N=C1\S/C(=C\c2ccc(OCCO)c(Cl)c2)C(=O)N1c1ccccc1` [Example 103, 5-[3-chloro-4-(2-hydroxy-ethoxy)-benz[Z]ylidene]-2-([Z]-Ethylimino)-3-phenyl-thiazolidin-4-one], the Lymphocyte counts was −47%.

For `CC/N=C1\S/C(=C\c2ccc(OCCO)c(Cl)c2)C(=O)N1c1cccc(C)c1C` [Example 110, 5-[3-chloro-4-(2-hydroxy-ethoxy)-benz[Z]ylidene]-3-(2,3-dimethyl-phenyl)-2-([Z]-ethylimino)-thiazolidin-4-one], the Lymphocyte counts was −30%.

For `CC(C)/N=C1\S/C(=C\c2ccc(OCCO)c(Cl)c2)C(=O)N1C(C)C` [Example 130, 5-[3-chloro-4-(2-hydroxy-ethoxy)-benz[Z]ylidene]-3-isopropyl-2-([Z]-isopropylimino)-thiazolidin-4-one], the Lymphocyte counts was −26%.

Still in this test, the particulars now being: at 3 mg/kg p.o.; 6 h after oral administration to normotensive male Wistar rats, compared to group treated with vehicle only.
As to `CCC/N=C1\S/C(=C\c2ccc(OC[C@@H](O)CO)c(Cl)c2)C(=O)N1c1ccccc1C` [Example 86, (S)-5-[3-chloro-4-(2,3-dihydroxy-propoxy)-benz[Z]ylidene]-2-([Z]-propylimino)-3-o-tolyl-thiazolidin-4-one], the Lymphocyte counts is −30* %.

The values are drawn from US9000018B2, “Thiazolidin-4-one-derivatives” (Actelion Pharmaceuticals Ltd., priority 2003, dated 2015).
